Experimental data taken from patent US20080214563A1, “Benzimidazole Thiophene Compounds As Plk Modulators” (priority 2005, published 2008).

Key:
PLK1 kinase domain = biological target: T1, PLK1 kinase domain (Homo sapiens, UniProt P53350); experiment: Assay for Inhibition of PLK1 (33P SPA kinase assay); format: biochemical; settings: 2 nM PLK1 kinase domain, 1 μM ATP; read-out: PLK1 pIC50 (converted)
T1 construct: made in house; host or cells: baculovirus infected T. ni cells
Method: All procedures were performed at 4° C. Cells were lysed in 50 mM HEPES, 200 mM NaCl, 50 mM imidazole, 5% glycerol; pH 7.5. The homogenate was centrifuged at 14K rpm in a SLA-1500 rotor for 1 h and the supernatant filtered through a 1.2 micron filter. The supernatant was loaded onto a Nickel chelating Sepharose (Amersham Pharmacia) column and washed with lysis buffer. Protein was eluted using 20%, 30% and 100% buffer B steps where buffer B is 50 mM HEPES, 200 mM NaCl, 300 mM imidazole, 5% glycerol; pH 7.5. Fractions containing PLK were determined by SDS-PAGE. Fractions containing PLK were diluted five-fold with 50 mM HEPES, 1 mM DTT, 5% glycerol; pH 7.5, then loaded on an SP Sepharose (Amersham Pharmacia) column. After washing the column with 50 mM HEPES, 1 mM DTT, 5% glycerol; pH 7.5, PLK was step eluted with 50 mM HEPES, 1 mM DTT, 500 mM NaCl; 5% glycerol; pH 7.5. PLK was concentrated using a 10 kDa molecular weight cutoff membrane and then loaded onto a Superdex 200 gel filtration (Amersham Pharmacia) column equilibrated in 25 mM HEPES, 1 mM DTT, 500 mM NaCl, 5% glycerol; pH 7.5. Fractions containing PLK were determined by SDS-PAGE. PLK was pooled, aliquoted and stored at −80° C. Samples were quality controlled using mass spectrometry, N-terminal sequencing and amino acid analysis.
B. Enzyme activity +/− inhibitors was determined as follows:
All measurements were obtained under conditions where signal production increased linearly with time and enzyme. Test compounds were added to white 384-well assay plates (0.1 μL for 10 μL and some 20 μl assays, 1 μL for some 20 μL assays) at variable known concentrations in 100% DMSO. DMSO (1-5% final, as appropriate) and EDTA (65 mM in reaction) were used as controls.
Reaction Mix (10 or 20 μL) was quickly added to each well immediately following addition of enzyme via automated liquid handlers and incubated 1-1.5 h at 22° C. The 20 μL enzymatic reactions were stopped with 50 μL of stop mix (50 mM EDTA, 4.0 mg/mL Streptavidin SPA beads in Standard Dulbecco's PBS (without Mg^2+ and Ca^2+), 50 μM ATP) per well. The 10 μL reactions were stopped with 10 μL of stop mix (50 mM EDTA, 3.0 mg/mL Streptavidin-coupled SPA Imaging Beads (“LeadSeeker”) in Standard Dulbecco's PBS (without Mg^2+ and Ca^2+), 50 μM ATP) per well. Plates were sealed with clear plastic seals, spun at 500×g for 1 min or settled overnight, and counted in Packard TopCount for 30 seconds/well (regular SPA) or imaged using a Viewlux imager (LeadSeeker SPA). Signal above background (EDTA controls) was converted to percent inhibition relative to that obtained in control (DMSO-only) wells.

BT474 = experiment: Cell-Titer Glo Cell Growth Inhibition Assay, BT474; format: cell-based; settings: Homo sapiens; CellTiter-Glo, 72 h, BT 474; read-out: CTG BT 474 IC50
Method: (§1) A549-L (human lung), BT474 (human breast), Colo 205 (human colon), H1299 (human lung), Hela (human cervix), HCT-116 (human colon), HN5 (human head and neck), HT29 (human colon), LNCap (human prostate), MCF7 (human breast), MDA-MB468 (human breast), MX-1 (human breast), RPMI 8226 (human peripheral blood), SKOV3 (human ovary) and P388 (murine leukemia) cell lines were cultured in RPMI1640 containing 10% fetal bovine serum at 37° C. in a 5% CO2 incubator. Cell lines were split into T75 flasks (Falcon #353136) two to three days prior to assay set up at density which yields approximately 70-80% confluency at time of harvest for assay. Cells were harvested using 0.25% trypsin with EDTA (Glibco/Invitrogen #25200-056), Cell counts were performed on cell suspensions using Trypan Blue exclusion staining, cells were then plated in 105 uL of culture media per well at the following densities in 96 well Costar #3916 black flat bottom plates: All human cell lines were plated at 500 cells/well. P388 were plated at 250 cells/well. All plates were placed at 5% CO2 37° C. overnight and then test compounds were added the following day. One plate of each cell type is treated with CellTiter-Glo (Promega #G7573) for a day 0 proliferation measurement and read as described below. […]

Hela = experiment: Cell-Titer Glo Cell Growth Inhibition Assay, Hela; format: cell-based; settings: Homo sapiens, CellTiter-Glo, 72 h, read-out: CTG Hela IC50
Method: as §1

HN5 = experiment: Cell-Titer Glo Cell Growth Inhibition Assay, HN5; format: cell-based; settings: Homo sapiens, CellTiter-Glo, 72 h, read-out: CTG HN5 IC50
Method: as §1

LNCap = experiment: Cell-Titer Glo Cell Growth Inhibition Assay, LNCap; format: cell-based; settings: Homo sapiens, CellTiter-Glo, 72 h, read-out: CTG LNCap IC50
Method: as §1

MCF7 = experiment: Cell-Titer Glo Cell Growth Inhibition Assay, MCF7; format: cell-based; settings: Homo sapiens, CellTiter-Glo, 72 h, read-out: CTG MCF7 IC50
Method: as §1

MDA-MB468 = experiment: Cell-Titer Glo Cell Growth Inhibition Assay, MDA-MB468; format: cell-based; settings: Homo sapiens, MDA-MB-468, CellTiter-Glo, 72 h, read-out: CTG MDA-MB468 IC50
Method: as §1

H1299 = experiment: Cell-Titer Glo Cell Growth Inhibition Assay, H1299; format: cell-based; settings: Homo sapiens, NCI-H1299, CellTiter-Glo, 72 h, read-out: CTG H1299 IC50
Method: as §1

RPMI 8226 = experiment: Cell-Titer Glo Cell Growth Inhibition Assay, RPMI 8226; format: cell-based; settings: Homo sapiens, CellTiter-Glo, 72 h, read-out: CTG RPMI 8226 IC50
Method: as §1

T1 sequence (P53350 21-346): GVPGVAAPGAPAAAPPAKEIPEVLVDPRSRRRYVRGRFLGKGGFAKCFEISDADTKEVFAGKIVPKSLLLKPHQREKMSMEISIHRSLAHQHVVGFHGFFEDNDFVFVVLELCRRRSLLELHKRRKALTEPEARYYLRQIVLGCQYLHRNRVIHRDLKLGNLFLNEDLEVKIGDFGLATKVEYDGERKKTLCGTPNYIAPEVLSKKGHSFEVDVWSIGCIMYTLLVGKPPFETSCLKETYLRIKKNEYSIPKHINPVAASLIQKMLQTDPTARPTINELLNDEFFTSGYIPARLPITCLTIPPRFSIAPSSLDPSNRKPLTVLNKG

Compound	IC50 (PLK1 kinase domain) [nM]	IC50 (BT474) [nM]	IC50 (Hela) [nM]	IC50 (HN5) [nM]	IC50 (LNCap) [nM]	IC50 (MCF7) [nM]	IC50 (MDA-MB468) [nM]	IC50 (H1299) [nM]	IC50 (RPMI 8226) [nM]
C[C@@H](Oc1cc(-n2cnc3cc(-c4ccc(N5CCNCC5)nc4)ccc32)sc1C(N)=O)c1ccccc1C(F)(F)F [Example 1, 5-{5-[6-(1-piperazinyl)-3-pyridinyl]-1H-benzimidazol-1-yl}-3-({(1R)-1-[2-(trifluoromethyl)phenyl]ethyl}oxy)-2-thiophenecarboxamide]	< 10								
C[C@@H](Oc1cc(-n2cnc3cc(-c4ccc(N5CCNCC5)nc4)ccc32)sc1C(N)=O)c1ccccc1Cl [Example 7, 3-{[(1R)-1-(2-Chlorophenyl)ethyl]oxy}-5-{5-[6-(1-piperazinyl)-3-pyridinyl]-1H-benzimidazol-1-yl}-2-thiophenecarboxamide]	< 10								
C[C@@H](Oc1cc(-n2cnc3cc(-c4cnn(C)c4)ccc32)sc1C(N)=O)c1ccccc1Cl [Example 9, 3-{[(1R)-1-(2-Chlorophenyl)ethyl]oxy}-5-[5-(1-methyl-1H-pyrazol-4-yl)-1H-benzimidazol-1-yl]-2-thiophenecarboxamide]		< 100	< 100	< 100	< 100	< 100	< 100	< 100	< 100
